Experimental data reported in PubChem BioAssay AID192 (DTP/NCI, 2004).
Several values for one entry are separate records, joined by “and”; a condition that tells them apart may be missing. Equal values may be shown once. Inconclusive results and toxic doses are left out. The calls were made as follows: active = survival T/C of 150% or more; inactive = T/C below 125% in these data.

Test system: BDF1 mice, B16 melanoma ip, median survival T/C
Assay: NCI In Vivo Anticancer Drug Screen. Data for tumor model B16 Melanoma (intraperitoneal) in B6D2F1 (BDF1) mice
Conditions: endpoint: median survival time, higher = longer survival
How it was run: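 Compounds were tested in mice carrying transplantable tumors. Survival or tumor size was recorded, and each value is the treated-group measurement (T) divided by that of the vehicle-treated control group (C).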

[1] = dose: 50.0 mg/kg/injection, schedule: Q01DX009 (ip), vehicle: Klucel (hydroxypropylcellulose) (HPC)
[2] = dose: 100.0 mg/kg/injection, schedule: Q01DX009 (ip), vehicle: Klucel (hydroxypropylcellulose) (HPC)
[3] = dose: 200.0 mg/kg/injection, schedule: Q01DX009 (ip), vehicle: Klucel (hydroxypropylcellulose) (HPC)
[4] = dose: 6.25 mg/kg/injection, schedule: Q01DX009 (ip), vehicle: saline with Tween-80
[5] = dose: 25.0 mg/kg/injection, schedule: Q01DX009 (ip), vehicle: saline with Tween-80
[6] = dose: 12.5 mg/kg/injection, schedule: Q01DX009 (ip), vehicle: saline with Tween-80
[7] = dose: 50.0 mg/kg/injection, schedule: Q01DX009 (ip), vehicle: saline with Tween-80
[8] = dose: 50.0 mg/kg/injection, schedule: Q01DX009 (ip), vehicle: saline
[9] = dose: 100.0 mg/kg/injection, schedule: Q01DX009 (ip), vehicle: saline
[10] = dose: 200.0 mg/kg/injection, schedule: Q01DX009 (ip), vehicle: saline

Measured: T/C

O=C(O)C1CC1.[Ag]
inactive: dose: 0.78 mg/kg/injection, schedule: Q01DX009 (ip), vehicle: water 114 % of control | dose: 1.56 mg/kg/injection, schedule: Q01DX009 (ip), vehicle: water 108 % of control | dose: 3.12 mg/kg/injection, schedule: Q01DX009 (ip), vehicle: water 108 % of control | dose: 6.25 mg/kg/injection, schedule: Q01DX009 (ip), vehicle: water 93 % of control | dose: 12.5 mg/kg/injection, schedule: Q01DX009 (ip), vehicle: water 91 % of control

C=C(NC(=O)C(=C)NC(=O)c1csc(C2=NC3c4csc(n4)C4NC(=O)c5csc(n5)C(C(C)(O)C(C)O)NC(=O)C5CSC(=N5)/C(=C/C)NC(=O)C(C(C)O)NC(=O)c5csc(n5)C3(CC2)NC(=O)C(C)NC(=O)C(=C)NC(=O)C(C)NC(=O)C(C(C)CC)NC2C=Cc3c(C(C)O)cc(nc3C2O)C(=O)OC4C)n1)C(N)=O (stereo not drawn)
inactive: [1] 106 % of control | [2] 109 % of control | [3] 112 % of control

Cc1cc2cc3cc(C)c(N)cc3nc2cc1N
inactive: dose: 3.12 mg/kg/injection, schedule: Q01DX009 (ip), vehicle: saline with Tween-80 116 % of control | [4] 121 % of control | [5] 119 % of control

CCCC[S][Sn]([CH2]CCC)([CH2]CCC)[S]CCCC
inactive: dose: 0.19 mg/kg/injection, schedule: Q01DX009 (ip), vehicle: saline with Tween-80 98 % of control | dose: 0.38 mg/kg/injection, schedule: Q01DX009 (ip), vehicle: saline with Tween-80 98 % of control | dose: 0.75 mg/kg/injection, schedule: Q01DX009 (ip), vehicle: saline with Tween-80 99 % of control

O=[N+]([O-])/C=C/c1ccc([N+](=O)[O-])cc1Cl
inactive: dose: 0.18 mg/kg/injection, schedule: Q01DX009 (ip), vehicle: Klucel (hydroxypropylcellulose) (HPC) 111 % of control | dose: 0.37 mg/kg/injection, schedule: Q01DX009 (ip), vehicle: Klucel (hydroxypropylcellulose) (HPC) 96 % of control | dose: 0.75 mg/kg/injection, schedule: Q01DX009 (ip), vehicle: Klucel (hydroxypropylcellulose) (HPC) 87 % of control and 90 % of control

O=c1c2ccccc2[nH]c(=S)n1C1CCCCC1
inactive: [2] 90 % of control | [3] 90 % of control

Cn1c(O)c(C=N)c(=O)[nH]c1=O
inactive: dose: 75.0 mg/kg/injection, schedule: Q01DX009 (ip), vehicle: Klucel (hydroxypropylcellulose) (HPC) 90 % of control | dose: 300.0 mg/kg/injection, schedule: Q01DX009 (ip), vehicle: Klucel (hydroxypropylcellulose) (HPC) 90 % of control

CNC(=O)n1c(N)nc(-c2ccccc2)c1-c1ccccc1
inactive: [4] 98 % of control | [6] 98 % of control | [5] 106 % of control | [7] 107 % of control

COc1cc2c[n+](C)c3c4cc(OC)c(OC)cc4ccc3c2cc1OC
inactive: dose: 6.25 mg/kg/injection, schedule: Q01DX001 (ip), vehicle: saline with Tween-80 109 % of control | dose: 12.5 mg/kg/injection, schedule: Q01DX001 (ip), vehicle: saline with Tween-80 100 % of control | dose: 25.0 mg/kg/injection, schedule: Q01DX001 (ip), vehicle: saline with Tween-80 105 % of control | dose: 50.0 mg/kg/injection, schedule: Q01DX001 (ip), vehicle: saline with Tween-80 88 % of control | [1] 108 % of control | dose: 100.0 mg/kg/injection, schedule: Q01DX001 (ip), vehicle: saline with Tween-80 90 % of control | [2] 102 % of control

C=C1C(=O)OC2CC(C)C3C4OC4C(O)C3(C)C(O)C12 (stereo not drawn)
inactive: dose: 9.38 mg/kg/injection, schedule: Q01DX009 (ip), vehicle: saline 94 % of control | dose: 18.75 mg/kg/injection, schedule: Q01DX009 (ip), vehicle: saline 94 % of control | dose: 37.5 mg/kg/injection, schedule: Q01DX009 (ip), vehicle: saline 103 % of control

CCOc1ccc(NC(=O)Nc2ccccc2)cc1
inactive: dose: 100.0 mg/kg/injection, schedule: Q01DX009 (ip), vehicle: saline with Tween-80 86 % of control

O=Nc1ccc(O)c(=O)cc1
inactive: dose: 1.0 mg/kg/injection, schedule: Q01DX009 (ip), vehicle: saline with Tween-80 97 % of control | dose: 2.0 mg/kg/injection, schedule: Q01DX009 (ip), vehicle: saline with Tween-80 90 % of control

CC(=O)OC1C(=O)C(O)C(C)OC1O[C@@H]1C[C@@]2(C)[C@@H]3CC=C4[C@@H](C[C@H](O)C(=O)C4(C)C)[C@]3(C)C(=O)C[C@]2(C)[C@H]1[C@@](C)(O)C(=O)/C=C/C(C)(C)O (stereo partly drawn)
inactive: dose: 1.0 mg/kg/injection, schedule: Q01DX009 (ip), vehicle: saline 92 % of control | dose: 2.0 mg/kg/injection, schedule: Q01DX009 (ip), vehicle: saline 92 % of control

Cc1c(Cl)cccc1NC(=O)COc1ccc(Cl)cc1
inactive: [6] 96 % of control | [5] 90 % of control | [7] 88 % of control

NC(N)=NOCC[C@@H](N)C(=O)O
inactive: [8] 105 % of control | [9] 101 % of control | [10] 100 % of control | dose: 400.0 mg/kg/injection, schedule: Q01DX009 (ip), vehicle: saline 99 % of control

O=NN(CCBr)C(=O)NC1CCCCC1
inactive: dose: 100.0 mg/kg/injection, schedule: Q01DX009 (ip), vehicle: gum acacia 105 % of control | dose: 200.0 mg/kg/injection, schedule: Q01DX009 (ip), vehicle: gum acacia 102 % of control | dose: 400.0 mg/kg/injection, schedule: Q01DX009 (ip), vehicle: gum acacia 90 % of control

O=C(O)c1ccc(S(=O)(=O)O)cc1C(=O)O
inactive: [8] 92 % of control | [9] 96 % of control | [10] 98 % of control

Cc1c2cc3c(c1O)C(=O)CC(O3)c1ccc(O)c(c1)-c1ccc(O)c(c1)C(=O)OCC1OC(O2)C(O)C(O)C1O (stereo not drawn)
inactive: dose: 0.13 mg/kg/injection, schedule: Q01DX009 (ip), vehicle: Klucel (hydroxypropylcellulose) (HPC) 91 % of control | dose: 0.25 mg/kg/injection, schedule: Q01DX009 (ip), vehicle: Klucel (hydroxypropylcellulose) (HPC) 94 % of control | dose: 0.5 mg/kg/injection, schedule: Q01DX009 (ip), vehicle: Klucel (hydroxypropylcellulose) (HPC) 95 % of control | dose: 1.0 mg/kg/injection, schedule: Q01DX009 (ip), vehicle: Klucel (hydroxypropylcellulose) (HPC) 94 % of control

CCN(CC)CCCC#CCN1CCOCC1
inactive: [8] 115 % of control | [9] 109 % of control | [10] 100 % of control

O=C1NC(c2c(Cl)cccc2Cl)Nc2ccccc21 (stereo not drawn)
inactive: [2] 96 % of control | [3] 103 % of control | dose: 400.0 mg/kg/injection, schedule: Q01DX009 (ip), vehicle: Klucel (hydroxypropylcellulose) (HPC) 90 % of control
